These results are taken from US20210379070A1, “MALONATE SALT OF VARLITINIB” (Aslan Pharmaceuticals PTE LTD, priority 2018, published 2021).

Structures are written as SMILES. “Also recorded” adds a separate entry of the source. A value given as a limit tells only on which side of the number the result lay.

Holding throughout (format): physicochemical
Data set [1] in a line: Salt disproportionation studies (slurry in water, XRPD at 1, 24 & 48 hours). The settings on record: room temperature, 1, 24 & 48 hours. Here is the method:
Salt Disproportionation Studies
Each potential salt was slurried in water at room temperature (ca. 22° C.), with the excess solid taken at 1, 24 & 48 hours and analysed by XRPD. The pH of the supernatant was also monitored.

A short description of data set [2]: Thermodynamic solubility (slurry in media of pH 1, 4.5 and 6.8, ca. 48 hours, HPLC; solids by XRPD). The settings on record: for Solid form by XRPD after thermodynamic solubility slurry: pH 1, 4.5, 6.8 media. Here is the method:
Slurries of each potential salt were created in media of pH 1; 4.5 and 6.8 and shaken for ca. 48 hours. The resulting solution was then analysed by HPLC and the concentration of material dissolved calculated. Remaining solids were analysed by XRPD to determine if any changes had occurred on slurrying.

The nature of data set [3]: Dynamic Vapour Sorption (DVS). The settings on record: for Solid form by XRPD post DVS: after exposure to varying % RH; for DVS water uptake: between 20-70% RH. Here is the method: Dynamic Vapour Sorption (DVS)
Approximately 10 mg of sample was placed into a mesh vapour sorption balance pan and loaded into a DVS-1 dynamic vapour sorption balance by Surface Measurement Systems. The sample was subjected to a ramping profile from 20-90% relative humidity (RH) at 10% increments maintaining the sample at each step until a stable weight had been achieved (99.5% step completion). After completion of the sorption cycle, the sample was dried using the same procedure, but all the way down to 0% RH and finally taken back to the starting point of 20% RH. The weight change during the sorption/desorption cycles were plotted, allowing for the hygroscopic nature of the sample to be determined.

Data set [4] in a line: Hydration studies (slurry in acetone:water 3, 5 and 10% water, ca. 48 hours, XRPD). Here is the method: Slurries of each potential salt were created in acetone:water mixtures (3, 5 and 10% water) and shaken for ca. 48 hours. The resulting solid was then analysed by XRPD to determine if any changes had occurred on slurrying.
Data set [5] is described as follows: Aqueous solubility (slurry in deionised water, 4 and 24 hours, room temperature, HPLC; solids by XRPD). The conditions noted are these: for Solid form by XRPD after aqueous solubility slurry: 4 and 24 hours; for Aqueous solubility: room temperature. Here is the method: Slurries of each potential salt were created in deionised water and agitated for 4 and 24 hours at room temperature. After both 4 and 24 hours, the resulting solutions were analysed by HPLC and the concentration of material dissolved calculated. Remaining solids were analysed by XRPD to determine if any changes had occurred on slurrying.

A short description of data set [6]: Stability (storage) testing, 1 week, XRPD. The settings on record: for Storage testing (solid form by XRPD): ambient light, 40° C./75% RH and 80° C., 1 week. Here is the method:
Each potential salt was exposed to environments of 40° C./75% RH, elevated temperature (80° C.) and ambient light (ca. 22° C. in a closed vial), for 1 week to determine stability. Resulting solids were analysed by XRPD to establish if any changes had occurred.

A short description of data set [7]: Thermal analysis (TG/DTA, DSC): onset of degradation. The conditions noted are these: TG/DTA (TGA). Here is the method:
Thermogravimetric Analysis (TGA)
Approximately, 5 mg of material was accurately weighed into an open aluminium pan and loaded into a simultaneous thermogravimetric/differential thermal analyser (TG/DTA) and held at room temperature. The sample was then heated at a rate of 10° C./min from 25° C. to […] the change in sample weight was recorded along with any differential thermal events (DTA). Nitrogen was used as the purge gas, at a flow rate of 100 cm^3/min.
Differential Scanning calorimetry (DSC)
Approximately, 5 mg of material was weighed into an aluminium DSC pan and sealed non-hermetically with a pierced aluminium lid. The sample pan was then loaded into a Seiko DSC6200 (equipped with a cooler). The sample and reference were heated to ca. 220° C. at a scan rate of 10° C./min and the resulting heat flow response monitored.

For orientation: Aqueous solubility means the dissolved amount per volume that the medium holds. Higher therefore signals a readily soluble substance. As for `C[C@@H]1COC(Nc2ccc3ncnc(Nc4ccc(OCc5nccs5)c(Cl)c4)c3c2)=N1.O=C(O)CC(=O)O` [malonate salt], the “Salt disproportionation on slurrying in water” value in data set [1] was “no form change of the malonate salt on slurrying in water; also recorded: No disproportionation or hydration observed”. In addition, the “Solid form by XRPD after thermodynamic solubility slurry” value in data set [2] is “A change in solid form was observed by XRPD from pH1 and pH4.5”. Moreover, the Thermodynamic solubility in data set [2] (pH1, ca. 48 hours) was 768.7 µg/mL; in data set [2] (pH 4.5, ca. 48 hours) it was 2.8 µg/mL; in data set [2] (pH 6.8, ca. 48 hours), 2 µg/mL. Besides, in data set [3] (DVS), the Hygroscopicity entry is recorded as “non-hygroscopic”. Moreover, the “Solid form by XRPD post DVS” value in data set [3] is “No change to the solid form; also recorded: no change in PXRD post DVS”. Besides, the DVS water uptake in data set [3] is reported as 0.14%. The “DVS water uptake overall” value in data set [3] turned out to be 0.35%. The “Hydration study (solid form after slurrying)” value in data set [4] is recorded as “remain unchanged after slurrying, indicating a low hydration risk; also recorded: No disproportionation or hydration observed”. The “Solid form by XRPD after aqueous solubility slurry” value in data set [5] is listed as “remain unchanged after slurrying”. The Aqueous solubility in data set [5] (4 hours) was 0.4947 mg/mL; in data set [5] (24 hours), 0.6036 mg/mL. Further, in data set [6], the “Storage testing (solid form by XRPD)” value is on record as “remained unchanged”. The “Overall stability in the secondary screen tests” value in data set [6] (conclusion over all tests employed) is recorded as “good stability throughout the tests employed”.

As for `C[C@@H]1COC(Nc2ccc3ncnc(Nc4ccc(OCc5nccs5)c(Cl)c4)c3c2)=N1` [varlitinib, (R)—N4-[3-Chloro-4-(thiazol-2-ylmethoxy)-phenyl]-N6-(4-methyl-4,5,-dihydro-oxazol-2-yl)-quinazoline-4,6-diamine], in data set [7], the Onset of degradation entry was “ca. 230 °C”.

With `C[C@@H]1COC(Nc2ccc3ncnc(Nc4ccc(OCc5nccs5)c(Cl)c4)c3c2)=N1.O=C(O)/C=C\C(=O)O` [maleate salt], the “Salt disproportionation on slurrying in water” value in data set [1] was “no change in form of the maleate salt on slurrying in water at 1 hr and 24 hrs. After 48 hrs the material was observed to be predominantly amorphous”. Further, the “Solid form by XRPD after thermodynamic solubility slurry” value in data set [2] was “A change in solid form was observed by XRPD from pH1 and pH4.5”. The Thermodynamic solubility was 1213.8 µg/mL in data set [2] (pH1, ca. 48 hours); 3.6 µg/mL in data set [2] (pH 4.5, ca. 48 hours); less than 0.445 µg/mL in data set [2] (pH 6.8, ca. 48 hours). Moreover, in data set [7], the Onset of degradation result was “ca. 150 °C”. Moreover, in data set [3], the “Solid form by XRPD post DVS” value is listed as “remain unchanged”. For the same molecule, in data set [3], the DVS water uptake was found to be 1.95%. For the same molecule, in data set [3], the “DVS water uptake overall” value is given as 2.84%. In addition, the “Hydration study (solid form after slurrying)” value in data set [4] is given as “remained unchanged after slurrying, indicating a low hydration risk”. The “Solid form by XRPD after aqueous solubility slurry” value in data set [5] is given as “remained unchanged after slurrying, with a potential increase in amorphous content”. The figures for the Aqueous solubility in data set [5] (4 hours) and in data set [5] (24 hours) were 0.2570 mg/mL and 0.4089 mg/mL, respectively. The “Storage testing (solid form by XRPD)” value in data set [6] was “remain unchanged”.
